Assays:
[1] = target: T1, IRAK4 (Homo sapiens, UniProt Q9NWZ3); test: Hibit fluorescence detection of proteolysis (IRAK4-HiBiT in HEK293T cells); format: cell-based; set-up: host or cells: HEK293T (ATCC); conditions: for Dmax: HEK-293T; for DC50: IRAK4-HiBiT, HEK293T cells, 24 h
T1 sequence (Q9NWZ3 1-460): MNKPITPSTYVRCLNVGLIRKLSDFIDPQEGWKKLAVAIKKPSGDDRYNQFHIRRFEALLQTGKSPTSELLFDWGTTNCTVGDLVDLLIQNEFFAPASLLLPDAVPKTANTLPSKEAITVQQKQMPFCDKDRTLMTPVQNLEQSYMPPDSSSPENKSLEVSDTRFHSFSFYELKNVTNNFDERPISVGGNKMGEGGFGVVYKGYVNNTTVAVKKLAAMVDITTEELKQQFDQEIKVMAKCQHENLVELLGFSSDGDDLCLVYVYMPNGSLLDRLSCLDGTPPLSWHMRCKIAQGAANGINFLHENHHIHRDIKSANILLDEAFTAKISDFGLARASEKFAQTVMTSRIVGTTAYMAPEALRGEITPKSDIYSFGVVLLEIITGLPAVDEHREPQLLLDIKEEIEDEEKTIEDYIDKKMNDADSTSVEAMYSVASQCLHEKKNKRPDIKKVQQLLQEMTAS
Procedure, shortened: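 Degradation read-out: luminescence from lytic HiBiT detection (15 min, room temperature) after 24 h compound exposure (37 °C, 5% CO2) of HEK293T cells transiently expressing IRAK4 fused to a HiBiT tag. Data fitted to a bell-shaped four-parameter model giving two EC50 values.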

[2] = target: T1, IRAK4; test: WB detection of proteolysis (Western Blot, THP-1 cells); format: cell-based
Description: The degradation level of IRAK4 in THP-1 cells was detected by Western Blot technology. […] 1000X gradient dilution stock of the compound was prepared, with the highest concentration set at 300 µM. The dilution was carried out using DMSO in a 1:3 dilution factor, yielding a total of 9 concentrations. 1000X gradient dilutions of the compound were added to a 12-well plate, with 1 µL per well. Incubation was performed under conditions of 37°C and 5% CO2 for 24 h, and the cells were collected into 2 mL of centrifuge tubes and centrifuged at 5000 rpm for 5 min, and the supernatant was removed. 100 µL of RIPA lysis buffer (Beyotime, P0013C) was added and mixed uniformly, then the cells were lysed on ice for 10 min, centrifuged at 4°C at 14000 rpm for 10 min, and the supernatant was collected. Protein content was determined with BCA (Solarbio, PC0020-10*50T). 75 µL of the supernatant was taken, and 25 µL of NuPAGE LDS Sample Buffer (4X) (Thermo B0007) was added to each tube (5% β-mercaptoethanol was added before use) to prepare samples, and the samples were boiled in a metal bath at 100°C for 5 min. […] 1x NuPAGE™ MOPS SDS electrophoresis buffer (20X) (Invitrogen, NP0001) was prepared, and the electrophoresis instrument was set to a constant current of 300 mA for 100 min, and the protein was transferred to a PVDF membrane (Millipore, IPVH00010). […] The membrane was washed three times with 1x TBST (Elabscience E-BC-R335) the next day, each time for 5 min. […] The membrane was washed three times with TBST, each time for 5 min. The Odyssey imaging system Li-cor Odyssey CLx was used to detect signals and analyze data. GraphPad (Prism 9.3) software was used to perform analysis for data, and non-linear fitting (non-liner inhibitor (Bell-shaped)) and four parameters (4 parameter) were used, and the parameters was as follows: Span1 = Plateau1−Dip [formula] Span2 = Plateau2−Dip [formula] Section1 = Span1/(1+10^(∧)((LogEC50_1−X)*nH1)) [formula] Section2 = Span2/(1+10^(∧)((X−LogEC50_2)*nH2)) [formula]
The equation was as follows: Y=Dip+Section1+Section2.

[3] = Western Blot, THP-1 cells, 24 h, read-out: DC50
[4] = Western Blot, THP-1 cells, 24 h, read-out: Dmax

Structure (SMILES)	Dmax [1] [%]	DC50 [1] [nM]	DC50 [2, 3] [nM]	Dmax [2, 4] [%]	Dmax ([2]; THP-1) [%]	DC50 ([2]; Western Blot, THP-1 cells, 24 h) [nM]
Cn1c(=O)n(C2CCC(=O)NC2=O)c2cccc(N3CCC4(CC3)CN(C[C@H]3CC[C@H](n5cc(-n6cc(-c7ccc8cc(C(N)=O)cnn78)nn6)c(C(F)F)n5)CC3)C4)c21 (stereo partly drawn) [Example 64]	> 80	< 0.5	> 30	60 to 70		
Cn1c(=O)n(C2CCC(=O)NC2=O)c2cccc(C3CCN(C[C@H]4CC[C@H](n5cc(-n6cc(-c7ccc8cc(C(N)=O)cnn78)nn6)c(C(F)F)n5)CC4)CC3)c21 (stereo partly drawn) [Example 84, 7-(1-(3-(difluoromethyl)-1-((1r,4r)-4-((4-(1-(2,6-dioxopiperidin-3-yl)-3-methyl-2-oxo-2,3-dihydro-1H-benzo[d]imidazol-4-yl)piperidin-1-yl)methyl)cyclohexyl)-1H-pyrazol-4-yl)-1H-1,2,3-triazol-4-yl)pyrrolo[1,2-b]pyridazine-3-carboxamide]	> 80	< 0.5	< 10	< 60		
Cn1c(=O)n(C2CCC(=O)NC2=O)c2cccc(N3CCC4(CCN(C[C@H]5CC[C@H](n6cc(-n7cc(-c8ccc9cc(C(N)=O)cnn89)nn7)c(C(F)F)n6)CC5)CC4)CC3)c21 (stereo partly drawn) [Example 85, 7-(1-(3-(difluoromethyl)-1-((1r,4r)-4-((9-(1-(2,6-dioxopiperidin-3-yl)-3-methyl-2-oxo-2,3-dihydro-1H-benzo[d]imidazol-4-yl)-3,9-diazaspiro[5.5]undecan-3-yl)methyl)cyclohexyl)-1H-pyrazol-4-yl)-1H-1,2,3-triazol-4-yl)pyrrolo[1,2-b]pyridazine-3-carboxamide]	> 80	< 0.5	< 10	> 70		
C[C@H]1CN(c2cccc3c2n(C)c(=O)n3C2CCC(=O)NC2=O)CCN1C[C@H]1CC[C@H](n2cc(-n3cc(-c4ccc5cc(C(N)=O)cnn45)nn3)c(C(F)F)n2)CC1 (stereo partly drawn) [Example 96]	> 80	< 0.5	< 10	> 70		
Cn1c(=O)n(C2CCC(=O)NC2=O)c2cccc(N3CCC4(CCN(C[C@H]5CC[C@H](n6cc(-n7cc(-n8ccc9cc(C(N)=O)cnc98)nn7)c(C(F)F)n6)CC5)C4)CC3)c21 (stereo partly drawn) [Example 97, 1-(1-(3-(difluoromethyl)-1-((1r,4r)-4-((8-(1-(2,6-dioxopiperidin-3-yl)-3-methyl-2-oxo-3,3-dihydro-1H-benzo[d]imidazol-4-yl)-2,8-diazaspiro[4.5]dec-2-yl)methyl)cyclohexyl)-1H-pyrazol-4-yl)-1H-1-1,2,3-triazolyl)-1H-pyrrolo[2,3-b]pyridine-5-carboxamide]	> 80	< 0.5			> 70	< 10
Cn1c(=O)n(C2CCC(=O)NC2=O)c2cccc(N3CCC(N4CCN(C[C@H]5CC[C@H](n6cc(-n7cc(-n8ccc9cc(C(N)=O)cnc98)nn7)c(C(F)F)n6)CC5)CC4)CC3)c21 (stereo partly drawn) [Example 98, 1-(1-(3-(difluoromethyl)-1-((1r,4r)-4-((4-(1-(2-(2,6-dioxopiperidin-3-yl)-3-methyl-2-oxo-3,3-dihydro-1H-benzo[d]imidazol-4-yl)piperidin-4-yl)piperazin-1-yl)methyl)cyclohexyl)-1H-pyrazol-4-yl)-1H-1-1,2,3-triazole)-1H-pyrrolo[2,3-b]pyridine-5-carboxamide]	> 80	< 0.5	< 10	> 70		
Cn1c(=O)n(C2CCC(=O)NC2=O)c2cccc(N3CCC4(CCN(C[C@H]5CC[C@H](n6cc(-n7cc(-n8ccc9cc(C(N)=O)cnc98)nn7)c(C(F)F)n6)CC5)CC4)CC3)c21 (stereo partly drawn) [Example 99]	> 80	< 0.5	10 to 30	< 60		
Cn1c(=O)n(C2CCC(=O)NC2=O)c2cccc(N[C@H]3CC[C@H](N(C)C[C@H]4CC[C@H](n5cc(-n6cc(-n7ccc8cc(C(N)=O)cnc87)nn6)c(C(F)F)n5)CC4)CC3)c21 (stereo partly drawn) [Example 102]	> 80	< 0.5	10 to 30	< 60		
Cn1c(=O)n(C2CCC(=O)NC2=O)c2cccc(N3CCC4(CCN(C[C@H]5CC[C@H](n6cc(-n7cc(-n8ccc9cc(C(N)=O)cnc98)nn7)c(C(F)F)n6)CC5)CC4)C3)c21 (stereo partly drawn) [Example 103, 1-(1-(3-(difluoromethyl)-1-((1r,4r)-4-(2-(1-(2,6-dioxopiperidin-3-yl)-3-methyl-2-oxo-2,3-dihydro-1H-benzo[d]imidazol-4-yl)-2,8-diazaspiro[4.5]dec-8-yl)methyl)cyclohexyl)-1H-pyrazol-4-yl)-1H-1,2,3-triazol-4-yl]	> 80	< 0.5	< 10	< 60		
Cn1c(=O)n(C2CCC(=O)NC2=O)c2cccc(N3CCC4(CCN(C[C@H]5CC[C@H](n6cc(-n7cc(-c8cnn9ccc(NCC%10CC%10)nc89)nn7)c(C(F)F)n6)CC5)CC4)CC3)c21 (stereo partly drawn) [Example 108]	> 80	< 0.5	< 10	> 70		
Cn1c(=O)n(C2CCC(=O)NC2=O)c2cccc(N3CCC4(CCN(C[C@H]5CC[C@H](n6cc(-n7cc(-c8cnn9ccc(NCC%10CC%10)nc89)nn7)c(C(F)F)n6)CC5)C4)CC3)c21 (stereo partly drawn) [Example 113]	> 80	< 0.5	> 30	60 to 70		
Cn1c(=O)n(C2CCC(=O)NC2=O)c2cccc(N3CCN(C[C@H]4CC[C@H](n5cc(-n6cc(-c7cnn8ccc(N9CCC[C@H](N)C9)nc78)nn6)c(C(F)F)n5)CC4)CC3)c21 (stereo partly drawn) [Example 115]	> 80	< 0.5	< 10	> 70		
Cn1c(=O)n(C2CCC(=O)NC2=O)c2cccc(N3CCC4(CCN(C[C@H]5CC[C@H](n6cc(-n7cc(-c8cnn9ccc(N%10CCC[C@H](N)C%10)nc89)nn7)c(C(F)F)n6)CC5)CC4)C3)c21 (stereo partly drawn) [Example 116]	> 80	0.5 to 1	10 to 30	60 to 70		
Cn1c(=O)n(C2CCC(=O)NC2=O)c2cccc(N[C@H]3CC[C@H](N(C)C[C@H]4CC[C@H](n5cc(-n6cc(-c7cnn8ccc(N9CCC[C@H](N)C9)nc78)nn6)c(C(F)F)n5)CC4)CC3)c21 (stereo partly drawn) [Example 118]	> 80	< 0.5	10 to 30	> 70		
Cn1c(=O)n(C2CCC(=O)NC2=O)c2cccc(N3CCC4(CCN(C[C@H]5CC[C@H](n6cc(-n7cc(-c8cnn9ccc(N%10CCC[C@H](N)C%10)nc89)nn7)c(C(F)F)n6)CC5)C4)CC3)c21 (stereo partly drawn) [Example 119]	> 80	0.5 to 1	10 to 30	> 70		
Cn1c(=O)n(C2CCC(=O)NC2=O)c2cccc(N3CCC4(CCN(C[C@H]5CC[C@H](n6cc(-n7cc(-c8cnn9ccc(N%10CCC[C@H](N)C%10)nc89)nn7)c(C(F)F)n6)CC5)CC4)CC3)c21 (stereo partly drawn) [Example 120]	> 80	0.5 to 1	< 10	> 70		
Cn1c(=O)n(C2CCC(=O)NC2=O)c2cccc(N3CCC(N4CCN(C[C@H]5CC[C@H](n6cc(-n7cc(-c8cnn9ccc(N[C@H]%10CCCC[C@H]%10O)nc89)nn7)c(C(F)F)n6)CC5)CC4)CC3)c21 (stereo partly drawn) [Example 122]	> 80	< 0.5	< 10	> 70		
Cn1c(=O)n(C2CCC(=O)NC2=O)c2cccc(N3CCC4(CCN(C[C@H]5CC[C@H](n6cc(-n7cc(-c8cnn9ccc(N%10CCC(C)(O)CC%10)nc89)nn7)c(C(F)F)n6)CC5)CC4)C3)c21 (stereo partly drawn) [Example 123]	> 80	< 0.5	< 10	< 60		
